Results from US20240132498A1, “CRYSTALLINE FORMS OF 5-(3,4-DIFLUOROBENZYL)-8-((1R,4R)-4-METHYLCYCLOHEXYL)-6,9-DIOXO-2,5,8-TRIAZASPIRO[3.5]NONANE-2-CARBALDEHYDE” (Cytokinetics, Incorporated, priority 2022, published 2024).

Experiments:
[1] = Monkey cassette dosing IV pharmacokinetics; format: in vivo; settings: male, plasma
CYP1A2 = molecular target: T1, CYP1A2 (Homo sapiens, UniProt P05177); test: Time-dependent inhibition of CYP450 enzymes in human liver microsomes: CYP1A2; format: in vitro ADME
T1 construct: from tissue; host or cells: pooled human liver microsomes
T1 sequence (P05177 1-516): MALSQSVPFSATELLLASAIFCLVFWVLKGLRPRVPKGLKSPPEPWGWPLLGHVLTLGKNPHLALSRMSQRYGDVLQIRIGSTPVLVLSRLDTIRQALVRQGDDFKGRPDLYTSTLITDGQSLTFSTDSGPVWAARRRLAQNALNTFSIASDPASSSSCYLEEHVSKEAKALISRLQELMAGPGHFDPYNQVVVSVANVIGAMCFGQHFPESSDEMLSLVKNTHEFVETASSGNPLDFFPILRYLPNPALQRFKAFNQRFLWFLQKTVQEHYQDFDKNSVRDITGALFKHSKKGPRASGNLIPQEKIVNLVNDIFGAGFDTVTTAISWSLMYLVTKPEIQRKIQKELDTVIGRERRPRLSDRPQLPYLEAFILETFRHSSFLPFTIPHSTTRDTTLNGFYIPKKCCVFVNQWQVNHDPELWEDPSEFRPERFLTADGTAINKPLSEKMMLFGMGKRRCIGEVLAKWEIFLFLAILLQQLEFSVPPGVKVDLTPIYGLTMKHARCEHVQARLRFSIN
Procedure: (§1) An assessment of the time-dependent Inhibitory Potential of the test compounds against Principal Human Cytochrome P450 Isozymes using Human Liver Microsomes was also carried out using standard methods (Grimm et al, Drug Metab. Dispos., Jul; 37(7):1355-70. doi: 10.1124/dmd.109.026716, 2009). Pooled human microsomes and selective CYP probe substrates were used for in vitro assessment of test compounds at 25 and 50 μM as time-dependent inhibitors of […] human hepatic cytochrome P450 isozymes (CYP1A2, 2B6, 2C9, 2C19, 2D6, and 3A4). LC-MS/MS was used to quantify metabolite formation. The inhibition of each P450 enzyme in human liver microsomes was measured as the percentage decrease in the activity of marker metabolite formation as measured by LC-MS/MS compared to non-inhibited controls (=100% activity) at time zero and after 30 minutes incubation. The occurrence of any time dependent inhibition was then expressed as the fold change in enzyme activity at time zero relative to the activity after 30 minutes incubation. The time dependent inhibition for the compound 5-(3,4-difluorobenzyl)-8-((1 r,4r)-4-methylcyclohexyl)-6,9-dioxo-2,5, 8-triazaspiro [3.5]nonane-2-carbaldehyde (Compound 1) against CYP1A2, […], CYP2C8, CYP2C9, CYP2C19, CYP2D6, CYP3A4-M and CYP3A4-T is shown in Table B-12.

CYP2B6 = molecular target: T2, CYP2B6 (Homo sapiens, UniProt P20813); test: Time-dependent inhibition of CYP450 enzymes in human liver microsomes: CYP2B6; format: in vitro ADME
T2 construct: from tissue; host or cells: pooled human liver microsomes
T2 sequence (P20813 1-491): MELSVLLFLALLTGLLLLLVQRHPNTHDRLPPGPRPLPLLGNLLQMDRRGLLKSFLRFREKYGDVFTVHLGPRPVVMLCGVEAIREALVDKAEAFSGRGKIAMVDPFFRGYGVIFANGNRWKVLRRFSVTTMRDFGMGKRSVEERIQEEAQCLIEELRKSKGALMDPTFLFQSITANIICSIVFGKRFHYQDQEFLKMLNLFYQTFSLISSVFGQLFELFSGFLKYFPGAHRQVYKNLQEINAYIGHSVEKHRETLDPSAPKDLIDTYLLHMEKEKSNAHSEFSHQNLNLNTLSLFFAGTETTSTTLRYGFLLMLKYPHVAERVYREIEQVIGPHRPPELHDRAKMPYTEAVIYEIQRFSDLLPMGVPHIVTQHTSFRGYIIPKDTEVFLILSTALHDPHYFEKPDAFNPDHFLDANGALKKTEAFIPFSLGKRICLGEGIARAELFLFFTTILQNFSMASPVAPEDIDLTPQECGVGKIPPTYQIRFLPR
Procedure: as §1

[2] = Short-term static storage stability of the solid (XRPD, HPLC); format: physicochemical
Procedure: Purity analysis was performed on an Agilent HP1100/Infinity 111260 series system equipped with a diode array detector and using OpenLAB software. The full method details are provided below.
For short-term (8 days or fewer) stability experiments, solid material was placed into open vials at elevated storage conditions, unless otherwise stated. These conditions were achieved using saturated salt solutions at specific temperatures within sealed containers. Storage containers were pre-equilibrated prior to input of samples.

[3] = Long-term storage stability of the solid (1, 3, 6 months); format: physicochemical
Text: For long-term (1 month or longer) stability experiments, solid material was placed into LDPE bags and sealed in a HDPE container at elevated storage conditions, unless otherwise stated.

[4] = Competitive slurry experiments between Form I and Form II; format: physicochemical; settings: competitive slurries of a mechanical mixture of Form I and Form II, range of temperatures (5-50)
Text: The results of the competitive slurry experiments are provided below in Table 6.

C[C@H]1CC[C@H](N2CC(=O)N(Cc3ccc(F)c(F)c3)C3(CN(C=O)C3)C2=O)CC1 [Compound 1, 5-(3,4-difluorobenzyl)-8-((1r,4r)-4-methylcyclohexyl)-6,9-dioxo-2,5,8-triazaspiro[3.5]nonane-2-carbaldehyde]
clearance [1]: 13.1 mL/min/kg | half-life [1]: 8.69 h | Vd ([1]; read-out: Vss): 8.8 L/kg | (% Activity NADPH T0)/(% Activity NADPH T30) (CYP1A2; CYP1A2, 25 μM): 1.1 | (% Activity NADPH T0)/(% Activity NADPH T30) (CYP1A2; CYP1A2, 50 μM): 1.0 | activity at 30 min, 25 µM (CYP1A2; human, pooled human liver microsomes, CYP1A2, 25 μM, 30 minutes incubation, read-out: % Activity NADPH T30): 90% | activity at 0 min, 25 µM (CYP1A2; human, pooled human liver microsomes, CYP1A2, 25 μM, time zero, read-out: % Activity NADPH T0): 95% | activity at 30 min, 50 µM (CYP1A2; human, pooled human liver microsomes, CYP1A2, 50 μM, 30 minutes incubation, read-out: % Activity NADPH T30): 85% | activity at 0 min, 50 µM (CYP1A2; human, pooled human liver microsomes, CYP1A2, 50 μM, time zero, read-out: % Activity NADPH T0): 86% | (% Activity NADPH T0)/(% Activity NADPH T30) (CYP2B6; CYP2B6, 25 μM): 1.1 | (% Activity NADPH T0)/(% Activity NADPH T30) (CYP2B6; CYP2B6, 50 μM): 1.0 | activity at 30 min, 25 µM (CYP2B6; human, pooled human liver microsomes, CYP2B6, 25 μM, 30 minutes incubation, read-out: % Activity NADPH T30): 84% | activity at 0 min, 25 µM (CYP2B6; human, pooled human liver microsomes, CYP2B6, 25 μM, time zero, read-out: % Activity NADPH T0): 95% | activity at 30 min, 50 µM (CYP2B6; human, pooled human liver microsomes, CYP2B6, 50 μM, 30 minutes incubation, read-out: % Activity NADPH T30): 76% | activity at 0 min, 50 µM (CYP2B6; human, pooled human liver microsomes, CYP2B6, 50 μM, time zero, read-out: % Activity NADPH T0): 76%

C[C@H]1CC[C@H](N2CC(=O)N(Cc3ccc(F)c(F)c3)C3(CN(C=O)C3)C2=O)CC1 [Form II, 5-(3,4-difluorobenzyl)-8-((1r,4r)-4-methylcyclohexyl)-6,9-dioxo-2,5,8-triazaspiro[3.5]nonane-2-carbaldehyde]
HPLC purity ([2]; Before Storage): 98.2% | XRPD ([2]; Before Storage): Form II | XRPD ([2]; Storage at 25° C./97% RH for 8 days): Unchanged by XRPD | XRPD ([2]; Storage at 40° C./75% RH for 8 days): Unchanged by XRPD | Assay ([3]; 25° C./60% RH, 1 month): 99.0 % w/w | Purity ([3]; 25° C./60% RH, 1 month): 99.1% | Total Impurities ([3]; 25° C./60% RH, 1 month): 0.92% | Water Content ([3]; 25° C./60% RH, 1 month): 0.02 % w/w | Assay ([3]; 25° C./60% RH, 3 months): 98.8 % w/w | Purity ([3]; 25° C./60% RH, 3 months): 99.1% | Total Impurities ([3]; 25° C./60% RH, 3 months): 0.91% | Water Content ([3]; 25° C./60% RH, 3 months): 0.01 % w/w | Assay ([3]; 25° C./60% RH, 6 months): 99.2 % w/w | Total Impurities ([3]; 25° C./60% RH, 6 months): 0.93% | Water Content ([3]; 25° C./60% RH, 6 months): 0.09 % w/w | XRPD ([3]; 25° C./60% RH, 6 months): Form II | Assay ([3]; 40° C./75% RH, 1 month): 98.6 % w/w | Purity ([3]; 40° C./75% RH, 1 month): 99.1% | Total Impurities ([3]; 40° C./75% RH, 1 month): 0.92% | Water Content ([3]; 40° C./75% RH, 1 month): 0.01 % w/w | Assay ([3]; 40° C./75% RH, 3 months): 97.9 % w/w | Purity ([3]; 40° C./75% RH, 3 months): 99.1% | Total Impurities ([3]; 40° C./75% RH, 3 months): 0.9% | Water Content ([3]; 40° C./75% RH, 3 months): 0.01 % w/w | Assay ([3]; 40° C./75% RH, 6 months): 99.5 % w/w | Total Impurities ([3]; 40° C./75% RH, 6 months): 0.91% | Water Content ([3]; 40° C./75% RH, 6 months): 0.06 % w/w | XRPD ([3]; 40° C./75% RH, 6 months): Form II | Assay ([3]; Initial): 99.1 % w/w | Purity ([3]; Initial): 99.1% | Total Impurities ([3]; Initial): 0.91% | Water Content ([3]; Initial): 0.02 % w/w | XRPD ([3]; Initial): Form II | relative thermodynamic stability of Form I and Form II [4]: most stable form
